Measurements taken from ChEMBL document CHEMBL3832023, “DailyMed|setid=c8b93fc1-472c-4890-8d02-2ee4f7175c22 | BUTALBITAL, ASPIRIN, CAFFEINE AND CODEINE PHOSPHATE- butalbital, aspirin,caffeine and codeine phosphate capsule|Jerome Stevens Pharmaceuticals”.

Assays:
[1] = test system: Homo sapiens; test: (§1) Pharmacokinetic parameters for aspirin and salicylic acid following oral administration of Aspirin,butalbital,caffeine phosphate capsules.; format: ADME, organism-based; set-up: dose 650 mg, route oral; conditions: in vivo, po, dose 650 mg, dosed compound id 37, dosed compound name ASPIRIN, tissue Plasma
[2] = as §1; format: ADME, organism-based; set-up: dose 650 mg, route oral; conditions: human, in vivo, dosed compound id 37, dosed compound name ASPIRIN, tissue Plasma; for half-life: dose 650 mg, route oral

CC(=O)Oc1ccccc1C(=O)O [ASPIRIN]
Tmax [1]: 40 min
Cmax ([2]; po, 650 mg): 8800 ng/mL
half-life [2]: 12 min

O=C(O)c1ccccc1O [SALICYLIC ACID]
half-life [2]: 180 min
